Article PMC5218480 (PLoS ONE, 2017)

System: MV-4-11 cells
Experiment: Gene expression microarray analysis (Affymetrix PrimeView) and GSEA
Assay type: cell-based, human
Set-up: RFU PODN (11730768_x_at) / Fold change /veh PODN (11730768_x_at) / RFU LINC00158 (11744669_a_at) / Fold change /veh LINC00158 (11744669_a_at) / RFU DUSP10 (11751237_a_at) / Fold change /veh DUSP10 (11751237_a_at) / RFU ID3 (11757404_x_at) / Fold change /veh ID3 (11757404_x_at) / RFU PLEKHG5 (11737974_s_at) / Fold change /veh PLEKHG5 (11737974_s_at) / RFU LRRC4B (11730491_at) / Fold change /veh LRRC4B (11730491_at) / RFU GIMAP4 (11747438_a_at) / Fold change /veh GIMAP4 (11747438_a_at) / RFU KRT8 (11758183_x_at) / Fold change /veh KRT8 (11758183_x_at) / RFU CNN1 (11734310_a_at) / Fold change /veh CNN1 (11734310_a_at) / RFU VPS37D (11726825_at) / Fold change /veh VPS37D (11726825_at) / RFU C10orf10 (11716522_x_at) / Fold change /veh C10orf10 (11716522_x_at) / RFU KIR2DL2 /// KIR2DL4 /// KIR2DL5A /// KIR2DL5B /// KIR2DS1 /// KIR2DS2 /// KIR2DS3 /// KIR2DS4 /// KIR3DL3 /// KIR3DL3 /// KIR3DS1 (11738374_at) / Fold change /veh KIR2DL2 /// KIR2DL4 /// KIR2DL5A /// KIR2DL5B /// KIR2DS1 /// KIR2DS2 /// KIR2DS3 /// KIR2DS4 /// KIR3DL3 /// KIR3DL3 /// KIR3DS1 (11738374_at) / RFU C1QL1 (11718748_at) / Fold change /veh C1QL1 (11718748_at) / RFU TMPRSS4 (11747572_a_at) / Fold change /veh TMPRSS4 (11747572_a_at) / RFU HAMP (11756126_x_at) / Fold change /veh HAMP (11756126_x_at) / RFU RNFT2 (11725882_a_at) / Fold change /veh RNFT2 (11725882_a_at) / RFU NR4A2 (11747474_a_at) / Fold change /veh NR4A2 (11747474_a_at) / RFU ABCC12 (11746883_a_at) / Fold change /veh ABCC12 (11746883_a_at) / RFU TMEM136 (11760407_x_at) / Fold change /veh TMEM136 (11760407_x_at) / RFU CLDN22 /// WWC2 (11732394_at) / Fold change /veh CLDN22 /// WWC2 (11732394_at) / RFU HLA-DPB1 (11760878_x_at) / Fold change /veh HLA-DPB1 (11760878_x_at) / RFU SPINT1 (11716480_a_at) / Fold change /veh SPINT1 (11716480_a_at) / RFU GAP43 (11754022_s_at) / Fold change /veh GAP43 (11754022_s_at) / RFU A4GNT (11735810_at) / Fold change /veh A4GNT (11735810_at) / RFU PRB3 (11715151_x_at) / Fold change /veh PRB3 (11715151_x_at) / RFU TUBB4B (11761932_at) / Fold change /veh TUBB4B (11761932_at) / RFU CAPN14 (11732068_a_at) / Fold change /veh CAPN14 (11732068_a_at) / RFU TMCC2 (11721928_a_at) / Fold change /veh TMCC2 (11721928_a_at) / RFU IRGQ (11745062_a_at) / Fold change /veh IRGQ (11745062_a_at) / RFU FAM174B (11720279_a_at) / Fold change /veh FAM174B (11720279_a_at) / RFU TMPRSS4 (11748680_a_at) / Fold change /veh TMPRSS4 (11748680_a_at) / RFU FAM212B (11763350_a_at) / Fold change /veh FAM212B (11763350_a_at) / RFU PLEKHG5 (11743358_a_at) / Fold change /veh PLEKHG5 (11743358_a_at) / RFU ZSCAN30 (11745921_a_at) / Fold change /veh ZSCAN30 (11745921_a_at) / RFU CMKLR1 (11741424_a_at) / Fold change /veh CMKLR1 (11741424_a_at) / RFU LOC101060620 /// MAPK8IP1 (11723275_at) / Fold change /veh LOC101060620 /// MAPK8IP1 (11723275_at) / RFU SPTSSB (11747773_x_at) / Fold change /veh SPTSSB (11747773_x_at) / RFU PRSS12 (11739890_at) / Fold change /veh PRSS12 (11739890_at) / RFU BIN1 (11741810_x_at) / Fold change /veh BIN1 (11741810_x_at) / RFU WNT11 (11732464_a_at) / Fold change /veh WNT11 (11732464_a_at) / RFU C10orf10 (11716521_a_at) / Fold change /veh C10orf10 (11716521_a_at) / RFU C5orf56 (11738089_at) / Fold change /veh C5orf56 (11738089_at) / RFU CYB561 (11721691_x_at) / Fold change /veh CYB561 (11721691_x_at) / RFU ANKRD19P (11752326_a_at) / Fold change /veh ANKRD19P (11752326_a_at) / RFU OR2T12 /// OR2T33 /// OR2T8 (11738714_s_at) / Fold change /veh OR2T12 /// OR2T33 /// OR2T8 (11738714_s_at) / RFU VCAN (11748164_a_at) / Fold change /veh VCAN (11748164_a_at) / RFU JSRP1 (11732532_at) / Fold change /veh JSRP1 (11732532_at) / RFU KRTAP10-11 (11738290_x_at) / Fold change /veh KRTAP10-11 (11738290_x_at) / RFU MYO3A (11730013_a_at) / Fold change /veh MYO3A (11730013_a_at) / RFU EBF3 (11725865_a_at) / Fold change /veh EBF3 (11725865_a_at) / RFU CAMK2N1 (11719241_x_at) / Fold change /veh CAMK2N1 (11719241_x_at) / RFU C5orf56 (11738088_a_at) / Fold change /veh C5orf56 (11738088_a_at) / RFU OLFML3 (11715873_a_at) / Fold change /veh OLFML3 (11715873_a_at) / RFU LOC100653217 /// NTM (11731650_a_at) / Fold change /veh LOC100653217 /// NTM (11731650_a_at) / RFU MAPK11 (11762145_a_at) / Fold change /veh MAPK11 (11762145_a_at) / RFU FIZ1 (11724087_x_at) / Fold change /veh FIZ1 (11724087_x_at) / RFU OASL (11726364_x_at) / Fold change /veh OASL (11726364_x_at) / RFU SOX15 (11748057_x_at) / Fold change /veh SOX15 (11748057_x_at) / RFU CD79A (11719716_a_at) / Fold change /veh CD79A (11719716_a_at) / RFU HIST1H1D (11736915_at) / Fold change /veh HIST1H1D (11736915_at) / RFU CASKIN2 (11723855_a_at) / Fold change /veh CASKIN2 (11723855_a_at) / RFU LOC730098 (11760151_x_at) / Fold change /veh LOC730098 (11760151_x_at) / RFU OR4N2 (11742367_at) / Fold change /veh OR4N2 (11742367_at) / RFU PRRT2 (11749266_a_at) / Fold change /veh PRRT2 (11749266_a_at) / RFU SNX32 (11753110_a_at) / Fold change /veh SNX32 (11753110_a_at) / RFU CDHR5 (11726645_a_at) / Fold change /veh CDHR5 (11726645_a_at) / RFU RCAN1 (11760418_a_at) / Fold change /veh RCAN1 (11760418_a_at) / RFU FAM167A (11723789_a_at) / Fold change /veh FAM167A (11723789_a_at) / RFU FAM26E (11764081_at) / Fold change /veh FAM26E (11764081_at) / RFU ISYNA1 (11749810_s_at) / Fold change /veh ISYNA1 (11749810_s_at) / RFU ACY1 (11761880_at) / Fold change /veh ACY1 (11761880_at) / RFU 11764098_at / Fold change /veh 11764098_at / RFU SAMD14 (11745864_x_at) / Fold change /veh SAMD14 (11745864_x_at) / RFU NPB (11741838_a_at) / Fold change /veh NPB (11741838_a_at) / RFU TMPRSS6 (11731388_a_at) / Fold change /veh TMPRSS6 (11731388_a_at) / RFU KRTAP10-2 (11738614_at) / Fold change /veh KRTAP10-2 (11738614_at) / RFU ARHGAP8 /// PRR5-ARHGAP8 (11727945_x_at) / Fold change /veh ARHGAP8 /// PRR5-ARHGAP8 (11727945_x_at) / RFU KRTAP5-7 /// NADSYN1 (11734609_at) / Fold change /veh KRTAP5-7 /// NADSYN1 (11734609_at) / RFU RASL12 (11751679_a_at) / Fold change /veh RASL12 (11751679_a_at) / RFU CDKN2B (11736163_a_at) / Fold change /veh CDKN2B (11736163_a_at) / RFU PRF1 (11729649_at) / Fold change /veh PRF1 (11729649_at) / RFU, ZNF638 /// ZNF638-IT1 / Fold change vs veh, ZNF638 /// ZNF638-IT1 / RFU, PANK3 / Fold change vs veh, PANK3 / RFU, SH3YL1 / Fold change vs veh, SH3YL1 / RFU, ZEB2 / Fold change vs veh, ZEB2 / RFU, NRIP1 / Fold change vs veh, NRIP1 / RFU, PTTG1IP / Fold change vs veh, PTTG1IP / RFU, CAPN2 / Fold change vs veh, CAPN2 / RFU, MED14 / Fold change vs veh, MED14 / RFU, SNORA58 / Fold change vs veh, SNORA58 / RFU, C1orf63 / Fold change vs veh, C1orf63 / RFU, LRRFIP1 / Fold change vs veh, LRRFIP1 / RFU, NDUFAF7 / Fold change vs veh, NDUFAF7 / RFU, SLC12A2 / Fold change vs veh, SLC12A2 / RFU, IBTK / Fold change vs veh, IBTK / RFU, ESF1 / Fold change vs veh, ESF1 / Fold change vs veh, TMEM50B / RFU, TAOK1 / Fold change vs veh, TAOK1 / RFU, ACBD3 / Fold change vs veh, ACBD3 / RFU, TMA16 / Fold change vs veh, TMA16 / RFU, RWDD3 / Fold change vs veh, RWDD3 / RFU, BCAT1 / Fold change vs veh, BCAT1 / RFU, EDEM3 / Fold change vs veh, EDEM3 / RFU, TMEM33 / Fold change vs veh, TMEM33 / RFU, WDR75 / Fold change vs veh, WDR75 / RFU, AHCTF1 / Fold change vs veh, AHCTF1 / RFU, TFRC / Fold change vs veh, TFRC / RFU, ZDHHC17 / Fold change vs veh, ZDHHC17 / RFU, NOM1 / Fold change vs veh, NOM1 / RFU, ARL8B / Fold change vs veh, ARL8B / RFU, ZBTB11 / Fold change vs veh, ZBTB11 / RFU, TAMM41 / Fold change vs veh, TAMM41 / RFU, KIAA1704 /// LOC100996395 / Fold change vs veh, KIAA1704 /// LOC100996395 / RFU, ING1 / Fold change vs veh, ING1 / RFU, TRMT61B / Fold change vs veh, TRMT61B / RFU, FUBP3 / Fold change vs veh, FUBP3 / RFU, TP53 / Fold change vs veh, TP53 / RFU, TNKS2 / Fold change vs veh, TNKS2 / RFU, ZFP14 / Fold change vs veh, ZFP14 / RFU, ACTR2 / Fold change vs veh, ACTR2 / RFU, PPP3R1 / Fold change vs veh, PPP3R1 / RFU, PIK3R1 / Fold change vs veh, PIK3R1 / RFU, HNRNPA1 / Fold change vs veh, HNRNPA1 / RFU, RNF170 / Fold change vs veh, RNF170 / RFU, ZNF28 / Fold change vs veh, ZNF28 / RFU, RNGTT / Fold change vs veh, RNGTT / RFU, OGT / Fold change vs veh, OGT / RFU, BRD1 / Fold change vs veh, BRD1 / RFU, MARS / Fold change vs veh, MARS / RFU, ZNF655 / Fold change vs veh, ZNF655 / RFU, FAHD1 / Fold change vs veh, FAHD1 / RFU, BDP1 / Fold change vs veh, BDP1 / RFU, LRRCC1 / Fold change vs veh, LRRCC1 / RFU, ARID1A / Fold change vs veh, ARID1A / RFU, ZNF146 / Fold change vs veh, ZNF146 / RFU, ZNF330 / Fold change vs veh, ZNF330 / RFU, GPN3 / Fold change vs veh, GPN3 / RFU, C9orf123 / Fold change vs veh, C9orf123 / RFU, N4BP2L2 / Fold change vs veh, N4BP2L2 / RFU, ARFIP1 / Fold change vs veh, ARFIP1 / RFU, FAM179B / Fold change vs veh, FAM179B / RFU, BCL10 / Fold change vs veh, BCL10 / RFU, UHRF1BP1L / Fold change vs veh, UHRF1BP1L / RFU, BET1 / Fold change vs veh, BET1 / RFU, CNOT2 / Fold change vs veh, CNOT2 / RFU, ZNF268 / Fold change vs veh, ZNF268 / Fold change vs veh, ZNF507 / RFU, DGCR2 / Fold change vs veh, DGCR2 / RFU, WDSUB1 / Fold change vs veh, WDSUB1 / Fold change vs veh, HSP90B1 /// MIR3652 / RFU, ADSS / Fold change vs veh, ADSS / RFU, GK / Fold change vs veh, GK / RFU, ZNF148 / Fold change vs veh, ZNF148 / RFU, TAF9 / Fold change vs veh, TAF9 / RFU, SLC1A5 / Fold change vs veh, SLC1A5 / RFU, SLMO2 / Fold change vs veh, SLMO2 / RFU, ABCC4 / Fold change vs veh, ABCC4 / RFU, LOC101060439 /// RAP1B / Fold change vs veh, LOC101060439 /// RAP1B / RFU, RFX7 / Fold change vs veh, RFX7 / RFU, GTPBP10 / Fold change vs veh, GTPBP10 / RFU, CNEP1R1 / Fold change vs veh, CNEP1R1 / RFU, BIVM-ERCC5 /// ERCC5 / Fold change vs veh, BIVM-ERCC5 /// ERCC5 / RFU, ILF3 / Fold change vs veh, ILF3 / RFU 11762660_at / Fold change /veh 11762660_at / RFU VCAN (11757783_s_at) / Fold change /veh VCAN (11757783_s_at) / RFU DDX43 (11728927_at) / Fold change /veh DDX43 (11728927_at) / RFU KRT8 (11758188_x_at) / Fold change /veh KRT8 (11758188_x_at) / RFU NKD1 (11759106_at) / Fold change /veh NKD1 (11759106_at) / RFU SRD5A1 (11742802_a_at) / Fold change /veh SRD5A1 (11742802_a_at) / RFU TPSAB1 /// TPSB2 (11721975_s_at) / Fold change /veh TPSAB1 /// TPSB2 (11721975_s_at) / RFU GSTM3 (11746129_a_at) / Fold change /veh GSTM3 (11746129_a_at) / RFU IL23R (11737362_x_at) / Fold change /veh IL23R (11737362_x_at) / RFU TMEM51 (11727254_a_at) / Fold change /veh TMEM51 (11727254_a_at) / RFU PIWIL2 (11732686_x_at) / Fold change /veh PIWIL2 (11732686_x_at) / RFU ORM1 (11744905_x_at) / Fold change /veh ORM1 (11744905_x_at) / RFU CCDC152 (11743942_at) / Fold change /veh CCDC152 (11743942_at) / RFU ECM1 (11717891_a_at) / Fold change /veh ECM1 (11717891_a_at) / RFU IL23R (11748794_a_at) / Fold change /veh IL23R (11748794_a_at) / RFU TNFAIP8L3 (11732012_x_at) / Fold change /veh TNFAIP8L3 (11732012_x_at) / RFU MBOAT4 (11741988_at) / Fold change /veh MBOAT4 (11741988_at) / RFU 11764193_at / Fold change /veh 11764193_at / RFU TMEM53 (11763286_at) / Fold change /veh TMEM53 (11763286_at) / RFU MAGEB2 (11727129_at) / Fold change /veh MAGEB2 (11727129_at) / RFU TMEM200A (11744735_a_at) / Fold change /veh TMEM200A (11744735_a_at) / RFU CCDC152 (11751479_a_at) / Fold change /veh CCDC152 (11751479_a_at) / RFU FAM211A (11726209_a_at) / Fold change /veh FAM211A (11726209_a_at) / RFU RGS16 (11746705_a_at) / Fold change /veh RGS16 (11746705_a_at) / RFU VCAN (11755009_s_at) / Fold change /veh VCAN (11755009_s_at) / RFU RHOB (11743442_s_at) / Fold change /veh RHOB (11743442_s_at) / RFU RGS16 (11720943_a_at) / Fold change /veh RGS16 (11720943_a_at) / RFU RGS16 (11720944_at) / Fold change /veh RGS16 (11720944_at) / RFU, VPS4B / Fold change vs veh, VPS4B / RFU, CREB1 / Fold change vs veh, CREB1 / RFU, DNAJC13 / Fold change vs veh, DNAJC13 / RFU, GNAQ / Fold change vs veh, GNAQ / RFU, CDK5R1 / Fold change vs veh, CDK5R1 / RFU, ZRANB3 / Fold change vs veh, ZRANB3 / RFU, CUL4A / Fold change vs veh, CUL4A / RFU, CCNY / Fold change vs veh, CCNY / RFU, UFL1 / Fold change vs veh, UFL1 / RFU, COG3 / Fold change vs veh, COG3 / RFU, DIAPH2 / Fold change vs veh, DIAPH2 / RFU, SKA2 / Fold change vs veh, SKA2 / RFU, AFF3 / Fold change vs veh, AFF3 / RFU, LMF1 / Fold change vs veh, LMF1 / RFU, IPO11 / Fold change vs veh, IPO11 / RFU, DFFB / Fold change vs veh, DFFB / RFU, FOXP1 / Fold change vs veh, FOXP1 / RFU, CARD8 / Fold change vs veh, CARD8 / RFU, STRN3 / Fold change vs veh, STRN3 / RFU, ADK / Fold change vs veh, ADK / RFU, RASSF2 / Fold change vs veh, RASSF2 / RFU, WIPF1 / Fold change vs veh, WIPF1 / RFU, LARP1B / Fold change vs veh, LARP1B / RFU, RASA1 / Fold change vs veh, RASA1 / RFU, RB1 / Fold change vs veh, RB1 / RFU, PPFIA1 / Fold change vs veh, PPFIA1 / RFU, MAT2A / Fold change vs veh, MAT2A / RFU, CCT5 / Fold change vs veh, CCT5 / RFU, WDR92 / Fold change vs veh, WDR92 / RFU, CUX1 / Fold change vs veh, CUX1 / RFU, TTC7A / Fold change vs veh, TTC7A / RFU, TMEM135 / Fold change vs veh, TMEM135 / RFU, DEPTOR / Fold change vs veh, DEPTOR / RFU, CPM / Fold change vs veh, CPM / RFU, DNAJB6 / Fold change vs veh, DNAJB6 / RFU, CACNA2D3 / Fold change vs veh, CACNA2D3 / RFU, DTX4 / Fold change vs veh, DTX4 / RFU, TFCP2 / Fold change vs veh, TFCP2 / RFU, GMCL1 /// GMCL1P1 / Fold change vs veh, GMCL1 /// GMCL1P1 / RFU, AEBP2 / Fold change vs veh, AEBP2 / RFU, SNHG1 /// SNORD22 /// SNORD25 /// SNORD26 /// SNORD27 /// SNORD28 /// SNORD29 /// SNORD31 / Fold change vs veh, SNHG1 /// SNORD22 /// SNORD25 /// SNORD26 /// SNORD27 /// SNORD28 /// SNORD29 /// SNORD31 / Fold change (Aza/veh), C12orf56 (ProbeSet 11735607_a_at) / Fold change (ACY-1035/veh), C12orf56 (ProbeSet 11735607_a_at) / Fold change (Aza/veh), FGFR1OP (ProbeSet 11751329_s_at) / Fold change (ACY-1035/veh), FGFR1OP (ProbeSet 11751329_s_at) / Fold change (Aza/veh), VPS36 (ProbeSet 11739960_a_at) / Fold change (ACY-1035/veh), VPS36 (ProbeSet 11739960_a_at) / RFU SYPL1 (11715823_x_at) / Fold change /veh SYPL1 (11715823_x_at) / RFU IGFBP7 (11715501_s_at) / Fold change /veh IGFBP7 (11715501_s_at) / RFU REEP3 (11722064_at) / Fold change /veh REEP3 (11722064_at) / RFU IGLL1 (11728026_x_at) / Fold change /veh IGLL1 (11728026_x_at): dose or concentration left out as unconfirmed
Settings: MV-4-11 cells, 48 hours

**Q.** For `Nc1ccc(-c2cccs2)cc1NC(=O)c1ccc2c(c1)cc(C1CC1)n2CCN1CCOCC1` [ACY-1035], which “Fold change /veh ID3 (11757404_x_at)” value is on record?
**A.** 1.00
